Calls of active or inactive are those of the source. No cut-off for these calls is given here.
Experiments:
[1] = target: Serine/threonine-protein kinase WNK4 (Homo sapiens) (UniProt Q96J92); conditions: Compound concentration 1000.0 nM
[2] = target: Beta-1 adrenergic receptor (Homo sapiens) (UniProt P08588); conditions: Compound concentration 10.0 uM
[3] = system: Phosphatidylinositol 4,5-bisphosphate 3-kinase catalytic subunit alpha isoform (Homo sapiens), P42336 [H1047Y]; conditions: Compound concentration 1000.0 nM
[4] = target: Epithelial discoidin domain-containing receptor 1 (Homo sapiens) (UniProt Q08345); conditions: Compound concentration 1000.0 nM
[5] = system: Epidermal growth factor receptor (Homo sapiens), P00533 [UNDEFINED MUTATION]; conditions: Compound concentration 1000.0 nM
[6] = target: Calcium/calmodulin-dependent protein kinase kinase 1 (Homo sapiens) (UniProt Q8N5S9); conditions: Compound concentration 1000.0 nM
[7] = target: Serine/threonine-protein kinase 4 (Homo sapiens) (UniProt Q13043); conditions: Compound concentration 1000.0 nM
[8] = target: Atypical kinase COQ8B, mitochondrial (Homo sapiens) (UniProt Q96D53); conditions: Compound concentration 1000.0 nM
[9] = target: Mitogen-activated protein kinase kinase kinase 5 (Homo sapiens) (UniProt Q99683); conditions: Compound concentration 1000.0 nM
[10] = target: Serine/threonine-protein kinase/endoribonuclease IRE1 (Homo sapiens) (UniProt O75460); conditions: Compound concentration 1000.0 nM
[11] = target: Cyclin-dependent kinase 16 (Homo sapiens) (UniProt Q00536); conditions: Compound concentration 1000.0 nM
[12] = target: Serine/threonine-protein kinase Chk1 (Homo sapiens) (UniProt O14757); conditions: Compound concentration 1000.0 nM
[13] = target: Serine/threonine-protein kinase PAK 5 (Homo sapiens) (UniProt Q9P286); conditions: Compound concentration 1000.0 nM
[14] = target: STE20/SPS1-related proline-alanine-rich protein kinase (Homo sapiens) (UniProt Q9UEW8); conditions: Compound concentration 1000.0 nM
[15] = target: Bone morphogenetic protein receptor type-1A (Homo sapiens) (UniProt P36894); conditions: Compound concentration 1000.0 nM
[16] = target: T1, Alpha-2B adrenergic receptor (Homo sapiens) (UniProt P18089); assay: Adrenergic a2b (human) CEREP ligand profiling; conditions: Compound concentration 10.0 uM
T1 sequence (whole entry): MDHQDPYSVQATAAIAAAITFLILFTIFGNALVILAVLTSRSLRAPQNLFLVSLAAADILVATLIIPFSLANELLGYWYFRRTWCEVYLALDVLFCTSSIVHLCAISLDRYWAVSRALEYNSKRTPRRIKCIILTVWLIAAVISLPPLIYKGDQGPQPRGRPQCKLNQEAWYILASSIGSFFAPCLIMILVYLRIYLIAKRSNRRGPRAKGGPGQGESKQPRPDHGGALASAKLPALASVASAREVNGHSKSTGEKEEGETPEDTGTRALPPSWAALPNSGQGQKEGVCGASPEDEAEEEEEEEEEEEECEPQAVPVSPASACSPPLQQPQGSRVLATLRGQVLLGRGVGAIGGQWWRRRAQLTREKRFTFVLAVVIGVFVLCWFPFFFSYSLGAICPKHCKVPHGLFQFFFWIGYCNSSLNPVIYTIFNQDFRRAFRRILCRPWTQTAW

[17] = target: 5-hydroxytryptamine receptor 1D (Homo sapiens) (UniProt P28221); conditions: Compound concentration 10.0 uM
[18] = target: Dual specificity tyrosine-phosphorylation-regulated kinase 2 (Homo sapiens) (UniProt Q92630); conditions: Compound concentration 1000.0 nM
[19] = target: 5-hydroxytryptamine receptor 1B (Homo sapiens) (UniProt P28222); conditions: Compound concentration 10.0 uM
[20] = system: Tyrosine-protein kinase ABL1 (Homo sapiens), P00519 [F317I]; conditions: Compound concentration 1000.0 nM
[21] = target: Serine/threonine-protein kinase MARK2 (Homo sapiens) (UniProt Q7KZI7); conditions: Compound concentration 1000.0 nM
[22] = system: Receptor-type tyrosine-protein kinase FLT3 (Homo sapiens), P36888 [UNDEFINED MUTATION]; conditions: Compound concentration 1000.0 nM
[23] = target: Sodium-dependent noradrenaline transporter (Homo sapiens) (UniProt P23975); conditions: Compound concentration 10.0 uM
[24] = target: Tyrosine-protein kinase ABL1 (Homo sapiens) (UniProt P00519); conditions: Compound concentration 1000.0 nM
[25] = target: Mitotic checkpoint serine/threonine-protein kinase BUB1 (Homo sapiens) (UniProt O43683); conditions: Compound concentration 1000.0 nM
[26] = target: Transient receptor potential cation channel subfamily M member 8 (Homo sapiens, UniProt Q7Z2W7); assay: Transients WS-12 activation
[27] = target: BDNF/NT-3 growth factors receptor (Homo sapiens) (UniProt Q16620); conditions: Compound concentration 1000.0 nM
[28] = target: Platelet-derived growth factor receptor alpha (Homo sapiens) (UniProt P16234); conditions: Compound concentration 1000.0 nM
[29] = target: Serine/threonine-protein kinase PLK2 (Homo sapiens) (UniProt Q9NYY3); conditions: Compound concentration 1000.0 nM
[30] = target: LIM domain kinase 1 (Homo sapiens) (UniProt P53667); conditions: Compound concentration 1000.0 nM
[31] = target: Cyclin-dependent kinase 18 (Homo sapiens) (UniProt Q07002); conditions: Compound concentration 1000.0 nM
[32] = target: cGMP-dependent protein kinase 2 (Homo sapiens) (UniProt Q13237); conditions: Compound concentration 1000.0 nM
[33] = target: Receptor tyrosine-protein kinase erbB-3 (Homo sapiens) (UniProt P21860); conditions: Compound concentration 1000.0 nM
[34] = target: Mitogen-activated protein kinase kinase kinase kinase 2 (Homo sapiens) (UniProt Q12851); conditions: Compound concentration 1000.0 nM
[35] = target: 5-hydroxytryptamine receptor 7 (Homo sapiens) (UniProt P34969); conditions: Compound concentration 10.0 uM
[36] = target: Mitogen-activated protein kinase kinase kinase 11 (Homo sapiens) (UniProt Q16584); conditions: Compound concentration 1000.0 nM
[37] = target: Casein kinase I isoform epsilon (Homo sapiens) (UniProt P49674); conditions: Compound concentration 1000.0 nM
[38] = target: Macrophage-stimulating protein receptor (Homo sapiens) (UniProt Q04912); conditions: Compound concentration 1000.0 nM

5-hydroxytryptamine receptor 7 (Homo sapiens), sequence (P34969 whole entry): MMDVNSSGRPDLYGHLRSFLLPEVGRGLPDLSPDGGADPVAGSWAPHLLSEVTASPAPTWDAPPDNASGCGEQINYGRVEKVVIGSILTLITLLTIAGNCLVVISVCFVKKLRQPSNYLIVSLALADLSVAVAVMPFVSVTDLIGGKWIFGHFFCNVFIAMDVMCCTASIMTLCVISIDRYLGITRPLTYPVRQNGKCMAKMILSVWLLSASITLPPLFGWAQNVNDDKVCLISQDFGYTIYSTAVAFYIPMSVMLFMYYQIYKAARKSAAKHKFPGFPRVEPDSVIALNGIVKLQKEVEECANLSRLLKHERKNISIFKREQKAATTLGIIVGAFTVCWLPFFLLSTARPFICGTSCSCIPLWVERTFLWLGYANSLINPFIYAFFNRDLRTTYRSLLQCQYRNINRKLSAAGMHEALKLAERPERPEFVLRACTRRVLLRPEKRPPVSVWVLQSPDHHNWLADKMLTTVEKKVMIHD
5-hydroxytryptamine receptor 1B (Homo sapiens), sequence (P28222 whole entry): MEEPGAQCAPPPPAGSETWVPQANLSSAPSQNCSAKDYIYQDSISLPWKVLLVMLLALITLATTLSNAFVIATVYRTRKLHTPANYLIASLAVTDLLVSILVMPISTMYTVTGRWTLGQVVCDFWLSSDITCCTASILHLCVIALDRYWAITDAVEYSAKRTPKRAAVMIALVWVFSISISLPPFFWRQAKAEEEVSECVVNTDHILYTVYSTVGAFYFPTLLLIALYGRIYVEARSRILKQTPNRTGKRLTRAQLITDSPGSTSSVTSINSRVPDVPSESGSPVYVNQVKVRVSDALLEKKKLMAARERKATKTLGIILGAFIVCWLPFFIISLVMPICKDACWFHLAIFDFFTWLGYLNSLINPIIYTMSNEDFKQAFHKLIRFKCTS
Serine/threonine-protein kinase WNK4 (Homo sapiens), sequence (Q96J92 whole entry): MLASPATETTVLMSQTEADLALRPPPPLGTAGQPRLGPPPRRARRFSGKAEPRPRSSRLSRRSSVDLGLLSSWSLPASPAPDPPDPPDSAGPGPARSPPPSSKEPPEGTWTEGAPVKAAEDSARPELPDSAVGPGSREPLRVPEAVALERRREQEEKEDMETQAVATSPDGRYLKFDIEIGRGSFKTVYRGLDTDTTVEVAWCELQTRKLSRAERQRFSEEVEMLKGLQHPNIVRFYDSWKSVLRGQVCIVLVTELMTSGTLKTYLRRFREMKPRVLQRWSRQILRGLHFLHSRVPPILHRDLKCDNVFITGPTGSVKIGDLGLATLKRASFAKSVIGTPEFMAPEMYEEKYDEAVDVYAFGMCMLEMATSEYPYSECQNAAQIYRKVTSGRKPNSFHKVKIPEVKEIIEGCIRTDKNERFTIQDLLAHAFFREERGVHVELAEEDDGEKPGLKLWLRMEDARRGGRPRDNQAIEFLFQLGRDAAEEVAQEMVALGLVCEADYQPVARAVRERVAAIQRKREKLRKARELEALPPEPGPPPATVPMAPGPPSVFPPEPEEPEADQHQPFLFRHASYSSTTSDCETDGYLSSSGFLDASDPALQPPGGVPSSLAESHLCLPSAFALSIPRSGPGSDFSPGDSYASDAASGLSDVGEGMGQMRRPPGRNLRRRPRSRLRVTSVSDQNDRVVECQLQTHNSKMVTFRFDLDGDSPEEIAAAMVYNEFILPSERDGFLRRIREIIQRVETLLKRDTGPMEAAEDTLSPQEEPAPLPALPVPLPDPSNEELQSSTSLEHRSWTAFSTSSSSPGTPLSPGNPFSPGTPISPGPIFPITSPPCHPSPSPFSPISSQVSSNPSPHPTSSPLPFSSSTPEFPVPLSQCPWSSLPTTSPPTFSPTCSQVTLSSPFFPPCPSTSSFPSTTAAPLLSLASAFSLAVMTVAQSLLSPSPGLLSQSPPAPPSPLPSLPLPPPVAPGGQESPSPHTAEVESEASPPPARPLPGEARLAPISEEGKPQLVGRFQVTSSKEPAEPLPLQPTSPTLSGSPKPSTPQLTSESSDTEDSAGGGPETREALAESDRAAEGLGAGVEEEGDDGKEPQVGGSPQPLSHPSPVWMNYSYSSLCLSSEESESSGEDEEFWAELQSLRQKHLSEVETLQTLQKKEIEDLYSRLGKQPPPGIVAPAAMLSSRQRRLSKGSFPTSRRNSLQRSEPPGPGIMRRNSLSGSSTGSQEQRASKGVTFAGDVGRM
Dual specificity tyrosine-phosphorylation-regulated kinase 2 (Homo sapiens), sequence (Q92630 whole entry): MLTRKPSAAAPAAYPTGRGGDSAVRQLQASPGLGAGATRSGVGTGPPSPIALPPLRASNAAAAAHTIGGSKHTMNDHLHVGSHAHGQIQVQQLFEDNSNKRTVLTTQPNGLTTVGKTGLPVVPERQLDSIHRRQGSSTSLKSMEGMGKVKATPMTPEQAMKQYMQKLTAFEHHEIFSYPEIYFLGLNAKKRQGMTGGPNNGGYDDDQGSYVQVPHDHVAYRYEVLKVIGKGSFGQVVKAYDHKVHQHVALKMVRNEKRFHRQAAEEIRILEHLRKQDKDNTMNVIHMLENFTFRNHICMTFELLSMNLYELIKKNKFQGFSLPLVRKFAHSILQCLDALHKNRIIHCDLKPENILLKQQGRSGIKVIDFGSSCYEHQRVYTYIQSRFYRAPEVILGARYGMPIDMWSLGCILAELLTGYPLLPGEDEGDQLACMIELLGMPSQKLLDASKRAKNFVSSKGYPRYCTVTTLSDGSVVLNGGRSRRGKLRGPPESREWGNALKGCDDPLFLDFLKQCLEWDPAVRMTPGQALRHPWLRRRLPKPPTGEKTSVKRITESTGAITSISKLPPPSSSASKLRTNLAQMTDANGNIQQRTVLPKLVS
Serine/threonine-protein kinase PLK2 (Homo sapiens), sequence (Q9NYY3 whole entry, looked up, the tested form may be a part): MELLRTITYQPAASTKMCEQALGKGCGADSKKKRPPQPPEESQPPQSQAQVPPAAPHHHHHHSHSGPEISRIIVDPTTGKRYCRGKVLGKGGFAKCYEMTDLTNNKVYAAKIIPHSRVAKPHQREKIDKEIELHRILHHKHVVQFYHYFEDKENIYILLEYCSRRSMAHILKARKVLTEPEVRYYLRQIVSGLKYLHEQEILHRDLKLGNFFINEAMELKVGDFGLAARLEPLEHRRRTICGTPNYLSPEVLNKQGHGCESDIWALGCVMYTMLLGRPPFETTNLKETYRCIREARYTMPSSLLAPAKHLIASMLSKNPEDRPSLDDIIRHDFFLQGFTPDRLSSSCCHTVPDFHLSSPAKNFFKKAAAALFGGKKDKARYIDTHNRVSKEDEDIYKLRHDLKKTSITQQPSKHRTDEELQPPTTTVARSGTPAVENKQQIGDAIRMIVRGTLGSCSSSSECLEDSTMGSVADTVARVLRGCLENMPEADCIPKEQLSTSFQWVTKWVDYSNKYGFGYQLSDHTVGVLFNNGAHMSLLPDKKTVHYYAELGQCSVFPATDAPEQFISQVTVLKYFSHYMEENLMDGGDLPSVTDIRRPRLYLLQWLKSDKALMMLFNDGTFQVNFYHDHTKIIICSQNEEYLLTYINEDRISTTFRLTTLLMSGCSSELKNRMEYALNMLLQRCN
5-hydroxytryptamine receptor 1D (Homo sapiens), sequence (P28221 whole entry): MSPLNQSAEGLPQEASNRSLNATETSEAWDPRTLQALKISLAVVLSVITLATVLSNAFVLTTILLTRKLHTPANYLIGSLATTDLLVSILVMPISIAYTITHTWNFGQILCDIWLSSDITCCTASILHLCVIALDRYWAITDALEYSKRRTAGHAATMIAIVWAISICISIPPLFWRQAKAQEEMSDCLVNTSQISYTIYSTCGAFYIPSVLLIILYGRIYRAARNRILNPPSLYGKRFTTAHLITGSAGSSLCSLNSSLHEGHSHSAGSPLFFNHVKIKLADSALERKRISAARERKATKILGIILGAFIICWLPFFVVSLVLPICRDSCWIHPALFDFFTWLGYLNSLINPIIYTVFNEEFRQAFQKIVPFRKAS
Mitogen-activated protein kinase kinase kinase kinase 2 (Homo sapiens), sequence (Q12851 whole entry): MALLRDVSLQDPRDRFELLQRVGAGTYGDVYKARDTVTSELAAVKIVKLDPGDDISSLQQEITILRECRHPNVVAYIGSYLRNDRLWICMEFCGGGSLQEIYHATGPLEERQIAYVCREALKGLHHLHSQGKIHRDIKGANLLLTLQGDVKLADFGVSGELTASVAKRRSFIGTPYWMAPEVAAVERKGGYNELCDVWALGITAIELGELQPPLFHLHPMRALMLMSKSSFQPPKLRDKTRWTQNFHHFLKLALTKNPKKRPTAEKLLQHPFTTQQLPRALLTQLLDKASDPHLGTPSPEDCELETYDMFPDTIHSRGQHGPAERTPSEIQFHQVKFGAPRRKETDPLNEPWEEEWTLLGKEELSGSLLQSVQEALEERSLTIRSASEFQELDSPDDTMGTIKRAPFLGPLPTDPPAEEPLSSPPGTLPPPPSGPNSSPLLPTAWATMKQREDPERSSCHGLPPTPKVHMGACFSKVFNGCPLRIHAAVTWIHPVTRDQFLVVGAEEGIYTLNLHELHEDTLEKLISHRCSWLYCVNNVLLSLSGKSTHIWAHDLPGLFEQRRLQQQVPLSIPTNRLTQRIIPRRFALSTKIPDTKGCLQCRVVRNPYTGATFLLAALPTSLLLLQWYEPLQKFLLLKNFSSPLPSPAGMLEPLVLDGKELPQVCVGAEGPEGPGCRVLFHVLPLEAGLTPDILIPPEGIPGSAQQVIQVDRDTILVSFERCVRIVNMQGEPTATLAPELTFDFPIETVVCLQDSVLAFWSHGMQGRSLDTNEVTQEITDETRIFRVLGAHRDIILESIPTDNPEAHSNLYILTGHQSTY
Casein kinase I isoform epsilon (Homo sapiens), sequence (P49674 whole entry, looked up, canonical isoform): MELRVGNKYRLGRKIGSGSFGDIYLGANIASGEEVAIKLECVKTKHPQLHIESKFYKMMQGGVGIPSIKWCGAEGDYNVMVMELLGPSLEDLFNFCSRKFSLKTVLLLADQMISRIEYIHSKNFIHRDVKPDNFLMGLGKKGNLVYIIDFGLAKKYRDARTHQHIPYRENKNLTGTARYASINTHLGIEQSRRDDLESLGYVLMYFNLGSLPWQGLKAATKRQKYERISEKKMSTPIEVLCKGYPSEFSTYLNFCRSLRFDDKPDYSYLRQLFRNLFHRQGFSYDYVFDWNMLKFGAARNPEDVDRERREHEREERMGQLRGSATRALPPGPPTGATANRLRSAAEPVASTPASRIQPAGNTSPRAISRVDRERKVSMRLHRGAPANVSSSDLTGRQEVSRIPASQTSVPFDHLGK

In the case of `C[C@H](c1ccc(F)cc1)N(Cc1cccc(C(=O)O)c1)C(=O)c1cnc2ccccc2c1` [PF-05105679], the residual activity [1] is reported as 91%, the inhibition [2] is reported as 7.42% and the residual activity [3] is reported as 100%. For the same molecule, the residual activity [4] was 100%, the residual activity [5] was 100% and the residual activity [6] was 100%. The residual activity [7] was 92%, the residual activity [8] was 86% and the residual activity [9] was 100%. For the same molecule, the residual activity [10] was 78%, the residual activity [11] was 100% and the residual activity [12] was 100%. It also gave a residual activity [13] of 93%, a residual activity [14] of 82% and a residual activity [15] of 100%. It also gave an inhibition [16] of 21%, an inhibition [17] of -1.68% and a residual activity [18] of 85%. For the same molecule, the inhibition [19] was 4.38%, the residual activity [20] was 100% and the residual activity [21] was 80%. The residual activity [22] was 100%, the inhibition [23] was 2.04% and the residual activity [24] was 76%. The residual activity [25] was 89%, the IC50 [26] was 29.6 nM (active) and the residual activity [27] was 100%. For the same molecule, the residual activity [28] was 100%, the residual activity [29] was 100% and the residual activity [30] was 100%. For the same molecule, the residual activity [31] was 100%, the residual activity [32] was 100% and the residual activity [33] was 68%. It also gave a residual activity [34] of 100%, an inhibition [35] of -2.7% and a residual activity [36] of 100%. For the same molecule, the residual activity [37] was 100% and the residual activity [38] was 100%.
